This passage reports IC50 results from US12391679B2, “Benzamide-substituted bicyclic imidazo- and pyrazolo-fused -pyridine, -pyrimide, and -pyridazine compounds for treatment of inflammatory diseases” (ONCO3R Therapeutics BV, priority 2019, dated 2025).

Holding throughout (assay type): biochemical
The target in one test is T1, SIK2 (Homo sapiens, UniProt Q9H0K1).
T1 construct: purchased ThermoFisher Scientific PV4792
Description: ADP-Glo kinase assay, SIK2. On the procedure: (§1) The ADP-Glo™ kinase assay is a luminescent technology assay which measures the ADP formed from a kinase reaction. […] In a second step the kinase reactions are terminated and all the remaining ATP is depleted. In a final step the ADP is converted into ATP and this newly synthesized ATP is measured by using a luciferase/luciferin reaction. The generated light is measured using an Envision plate reader, wherein the luminescent signal obtained positively correlates with the kinase activity.
(§2) 1% DMSO and 10 μM staurosporine final concentrations are used as negative and positive controls.
(§3) 2 μL enzyme-substrate mixture is added to the assay plates.
(§4) The reaction is started by adding 2 μL diluted ATP on the assay plates. Plates are centrifuged for a few seconds at 1000 rpm and gently shaken for […] followed by an incubation at RT for 120 min.
(§5) The reactions are stopped and the unconsumed ATP is depleted by adding 5 μL ADP-Glo Reagent (Promega, Cat #V9120) to the reaction. The plates are centrifuged for a few seconds at 1000 rpm and incubated at RT for 40 min (ATP depletion).
(§6) The ADP is converted to ATP and luciferase and luciferin is introduced to detect ATP by adding 10 μL Kinase Detection Reagent (Promega, Cat #V913B+V914r) to the reaction. The plates are centrifuged for a few seconds at 1000 rpm and incubated at RT for 30 min (ADP detection).
(§7) Luminescence is measured on an Envision plate reader (PerkinElmer Inc.).
In general terms: ADP-Glo turns the ADP formed in a reaction into a luminescent signal.

The next test addresses T2, SIK3 (Homo sapiens, UniProt Q9Y2K2).
T2 construct: purchased SignalChem S12-11G-100
Description: ADP-Glo kinase assay, SIK3. On the procedure: as §1, §2, §3, §4, §5, §6, §7

The next test concerns the target T3, SIK1 (Homo sapiens, UniProt P57059).
T3 construct: purchased Carna Biosciences 02-131
Description: ADP-Glo kinase assay, SIK1. On the procedure: as §1, §2, §3, §4, §5, §6, §7

For orientation: IC50 means the concentration that inhibits the measured activity by half. Read a low IC50 as inhibition by little substance.

T1 sequence (Q9H0K1 whole entry): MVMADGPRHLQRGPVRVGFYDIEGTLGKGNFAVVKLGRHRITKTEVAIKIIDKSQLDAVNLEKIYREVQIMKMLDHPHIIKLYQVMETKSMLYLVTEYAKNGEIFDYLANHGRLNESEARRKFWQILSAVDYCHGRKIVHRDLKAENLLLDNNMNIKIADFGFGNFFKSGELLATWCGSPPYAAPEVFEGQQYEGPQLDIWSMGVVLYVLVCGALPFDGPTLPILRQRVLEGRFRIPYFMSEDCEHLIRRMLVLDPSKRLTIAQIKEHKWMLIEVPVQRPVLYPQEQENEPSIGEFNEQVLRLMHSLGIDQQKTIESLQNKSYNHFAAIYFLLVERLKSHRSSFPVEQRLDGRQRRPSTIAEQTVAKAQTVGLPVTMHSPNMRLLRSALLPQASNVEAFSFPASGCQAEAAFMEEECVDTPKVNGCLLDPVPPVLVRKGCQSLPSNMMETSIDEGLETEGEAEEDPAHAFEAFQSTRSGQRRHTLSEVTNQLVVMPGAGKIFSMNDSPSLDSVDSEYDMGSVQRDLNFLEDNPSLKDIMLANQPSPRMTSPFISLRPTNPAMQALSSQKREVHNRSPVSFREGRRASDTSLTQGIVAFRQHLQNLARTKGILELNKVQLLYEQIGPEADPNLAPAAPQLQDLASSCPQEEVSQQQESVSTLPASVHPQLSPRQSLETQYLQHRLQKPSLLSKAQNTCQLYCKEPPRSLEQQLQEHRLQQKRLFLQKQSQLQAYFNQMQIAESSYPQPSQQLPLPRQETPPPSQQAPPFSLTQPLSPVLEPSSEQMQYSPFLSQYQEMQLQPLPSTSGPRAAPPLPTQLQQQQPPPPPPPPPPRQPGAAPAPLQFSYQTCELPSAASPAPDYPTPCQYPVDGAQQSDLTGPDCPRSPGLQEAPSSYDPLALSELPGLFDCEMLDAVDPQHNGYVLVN
T3 sequence (P57059 whole entry): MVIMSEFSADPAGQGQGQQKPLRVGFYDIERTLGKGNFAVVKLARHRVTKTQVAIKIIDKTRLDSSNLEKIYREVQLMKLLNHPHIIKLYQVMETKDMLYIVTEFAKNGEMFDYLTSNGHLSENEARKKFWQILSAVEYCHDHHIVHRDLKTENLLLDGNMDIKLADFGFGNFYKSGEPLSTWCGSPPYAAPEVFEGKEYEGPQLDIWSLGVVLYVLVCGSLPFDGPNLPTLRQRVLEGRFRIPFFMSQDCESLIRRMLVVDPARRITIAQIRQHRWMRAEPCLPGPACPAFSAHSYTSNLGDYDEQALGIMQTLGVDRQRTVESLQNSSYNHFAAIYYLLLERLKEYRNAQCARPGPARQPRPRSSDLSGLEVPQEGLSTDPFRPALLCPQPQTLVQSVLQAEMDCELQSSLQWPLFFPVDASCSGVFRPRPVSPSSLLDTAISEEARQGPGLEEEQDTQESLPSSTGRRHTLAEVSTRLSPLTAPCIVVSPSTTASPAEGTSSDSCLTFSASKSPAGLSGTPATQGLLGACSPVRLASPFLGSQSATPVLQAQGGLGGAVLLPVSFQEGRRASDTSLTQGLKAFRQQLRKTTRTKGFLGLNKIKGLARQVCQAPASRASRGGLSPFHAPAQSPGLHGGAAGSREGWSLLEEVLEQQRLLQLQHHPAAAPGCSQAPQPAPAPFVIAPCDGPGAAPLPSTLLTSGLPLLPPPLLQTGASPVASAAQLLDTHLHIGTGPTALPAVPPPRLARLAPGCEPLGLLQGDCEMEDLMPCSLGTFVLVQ
T2 sequence (Q9Y2K2 59-365 limits assumed): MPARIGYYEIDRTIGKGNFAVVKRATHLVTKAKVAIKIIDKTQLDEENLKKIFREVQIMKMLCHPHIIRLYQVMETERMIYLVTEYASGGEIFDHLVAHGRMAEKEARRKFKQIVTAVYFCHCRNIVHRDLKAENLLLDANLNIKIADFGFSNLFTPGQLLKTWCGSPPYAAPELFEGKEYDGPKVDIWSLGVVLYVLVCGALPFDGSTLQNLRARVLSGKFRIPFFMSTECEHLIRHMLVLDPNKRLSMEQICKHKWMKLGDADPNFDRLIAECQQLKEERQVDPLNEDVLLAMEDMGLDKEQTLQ

As to `COc1cc(-c2cnc3cc(C(C)(C)C#N)ccn23)cc(OC(F)F)c1C(=O)N1CC(NC(=O)OC(C)(C)C)C1` [Cpd 94, tert-butyl N-[1-[4-[7-(1-cyano-1-methyl-ethyl)imidazo[1,2-a]pyridin-3-yl]-2-(difluoromethoxy)-6-methoxy-benzoyl]azetidin-3-yl]carbamate], the IC50 against SIK2, at SIK3 and on SIK1 was over 500 nM throughout.
Regarding `COc1cc(-c2cnn3cc(C(C)(C)C#N)ccc23)cc(OC)c1C(=O)NC1CC1` [Cpd 259, 4-[6-(1-cyano-1-methyl-ethyl)pyrazolo[1,5-a]pyridin-3-yl]-N-cyclopropyl-2,6-dimethoxy-benzamide], the figures for the IC50 on SIK2, against SIK3 and at SIK1 were over 500 nM, 10 to 100 nM and over 500 nM, respectively.
As for `COc1cc(-c2cnc3cc(C4CCNCC4)ccn23)cc(OC(F)F)c1C(=O)NC1CC1` [Cpd 66, N-cyclopropyl-2-(difluoromethoxy)-6-methoxy-4-[7-(4-piperidyl)imidazo[1,2-a]pyridin-3-yl]benzamide], the IC50 was 10 to 100 nM at SIK2, 10 to 100 nM on SIK3 and over 500 nM on SIK1.
As to `COc1cc(-c2cnc3cc(C(C)(C)C#N)ccn23)cc(OC(F)F)c1C(=O)NCc1ccn(C)n1` [Cpd 52, 4-[7-(1-cyano-1-methyl-ethyl)imidazo[1,2-a]pyridin-3-yl]-2-(difluoromethoxy)-6-methoxy-N-[(1-methylpyrazol-3-yl)methyl]benzamide], the half-maximal inhibitory concentration (IC50) on SIK2, against SIK3 and on SIK1 was over 500 nM each time.
Regarding `COCC1(NC(=O)c2c(OC)cc(-c3cnc4cc(C(C)(C)C#N)ccn34)cc2OC(F)F)CC1` [Cpd 81, 4-[7-(1-cyano-1-methyl-ethyl)imidazo[1,2-a]pyridin-3-yl]-2-(difluoromethoxy)-6-methoxy-N-[1-(methoxymethyl)cyclopropyl]benzamide], the IC50 against SIK2, against SIK3 and against SIK1 was over 500 nM in each case.
In the case of `COC(=O)C(C)(C#N)c1ccn2c(-c3cc(OC)c(C(=O)NC4CC4)c(OC(F)F)c3)cnc2c1` (stereo not drawn) [Cpd 184, methyl 2-cyano-2-[3-[4-(cyclopropylcarbamoyl)-3-(difluoromethoxy)-5-methoxy-phenyl]imidazo[1,2-a]pyridin-7-yl]propanoate], the concentration for half-maximal inhibition (IC50) against SIK2, against SIK3 and at SIK1 was over 500 nM in each case.
For the compound `COc1cc(-c2cnc3cc(C(C)N(C)CCO)ccn23)cc(OC(F)F)c1C(=O)NC1CC1` (stereo not drawn) [Cpd 154, N-cyclopropyl-2-(difluoromethoxy)-4-[7-[1-[2-hydroxyethyl(methyl)amino]ethyl]imidazo[1,2-a]pyridin-3-yl]-6-methoxy-benzamide], the IC50 against SIK2 was over 500 nM; against SIK3, 10 to 100 nM; at SIK1, over 500 nM.
As to `COc1cc(-c2cnn3cc(C4(C(=O)N5CCOCC5)CCC4)ccc23)cc(OC(F)F)c1C(=O)N[C@@H]1C[C@@H]1F` [Cpd 274, 2-(difluoromethoxy)-N-[(1R,2S)-2-fluorocyclopropyl]-6-methoxy-4-[6-[1-(morpholine-4-carbonyl)cyclobutyl]pyrazolo[1,5-a]pyridin-3-yl]benzamide], the IC50 at SIK2 is over 500 nM; on SIK3, 100 to 500 nM; against SIK1 it was over 500 nM.
For `COc1cc(-c2cnc3cc(C(C)(C)C#N)ccn23)cc(OC(F)F)c1C(=O)N1CCS(=O)(=O)CC1` [Cpd 38, 2-[3-[3-(difluoromethoxy)-4-(1,1-dioxo-1,4-thiazinane-4-carbonyl)-5-methoxy-phenyl]imidazo[1,2-a]pyridin-7-yl]-2-methyl-propanenitrile], the half-maximal inhibitory concentration (IC50) against SIK2, against SIK3 and against SIK1 was over 500 nM throughout.
Take `COc1cc(-c2cnc3cc(C(C)(C)C#N)ccn23)cc(OC(F)F)c1C(=O)N1CCC1C` (stereo not drawn) [Cpd 104, 2-[3-[3-(difluoromethoxy)-5-methoxy-4-(2-methylazetidine-1-carbonyl)phenyl]imidazo[1,2-a]pyridin-7-yl]-2-methyl-propanenitrile]: the IC50 on SIK2, at SIK3 and at SIK1 was over 500 nM throughout.
Take `COc1cc(-c2cnc3cc(C(C)(C)C#N)ccn23)cc(OC(F)F)c1C(=O)N1CC2(CN(C)C2)C1` [Cpd 99, 2-[3-[3-(difluoromethoxy)-5-methoxy-4-(6-methyl-2,6-diazaspiro[3.3]heptane-2-carbonyl)phenyl]imidazo[1,2-a]pyridin-7-yl]-2-methyl-propanenitrile]: the IC50 was over 500 nM against SIK2, 100 to 500 nM at SIK3 and over 500 nM on SIK1.
Consider `CCC(O)(CC)c1ccn2c(-c3cc(OC)c(C(=O)NC4CC4)c(OC(F)F)c3)cnc2c1` [Cpd 124, N-cyclopropyl-2-(difluoromethoxy)-4-[7-(1-ethyl-1-hydroxy-propyl)imidazo[1,2-a]pyridin-3-yl]-6-methoxy-benzamide], for which the IC50 is over 500 nM at SIK2, 100 to 500 nM at SIK3 and over 500 nM on SIK1.
For `COc1cc(-c2cnc3cc(C4(C)CN(C)CCO4)ccn23)cc(OC(F)F)c1C(=O)NCC(F)(F)F` (stereo not drawn) [Cpd 214, 2-(difluoromethoxy)-4-[7-(2,4-dimethylmorpholin-2-yl)imidazo[1,2-a]pyridin-3-yl]-6-methoxy-N-(2,2,2-trifluoroethyl)benzamide], the figures for the IC50 at SIK2, on SIK3 and at SIK1 were over 500 nM, 100 to 500 nM and over 500 nM, respectively.
For the compound `COc1cc(-c2cnc3cc(C(C)(C)C#N)ccn23)cc(OC(F)F)c1C(=O)NCC1CCOC1` (stereo not drawn) [Cpd 85, 4-[7-(1-cyano-1-methyl-ethyl)imidazo[1,2-a]pyridin-3-yl]-2-(difluoromethoxy)-6-methoxy-N-(tetrahydrofuran-3-ylmethyl)benzamide], the IC50 was over 500 nM against SIK2, 100 to 500 nM against SIK3 and over 500 nM on SIK1.
For `COc1cc(-c2cnc3cc(C4CCOCC4)ccn23)cc(OC)c1C(=O)NCC(F)(F)F` [Cpd 37, 2,6-dimethoxy-4-(7-tetrahydropyran-4-ylimidazo[1,2-a]pyridin-3-yl)-N-(2,2,2-trifluoroethyl)benzamide], the results for the IC50 at SIK2, against SIK3 and against SIK1 were 100 to 500 nM, 10 to 100 nM and over 500 nM, respectively.
Consider `COc1cc(-c2cnn3cc(C4(NCC#N)CCC4)ccc23)cc(OC(F)F)c1C(=O)N[C@@H]1C[C@@H]1F` [Cpd 270, 4-[6-[1-(cyanomethylamino)cyclobutyl]pyrazolo[1,5-a]pyridin-3-yl]-2-(difluoromethoxy)-N-[(1R,2S)-2-fluorocyclopropyl]-6-methoxy-benzamide], for which the IC50 was over 500 nM at SIK2, 10 to 100 nM at SIK3 and over 500 nM at SIK1.
In the case of `COc1cc(-c2cnc3cc(C4CN(C)C4)ccn23)cc(OC(F)F)c1C(=O)NC1CC1` [Cpd 91, N-cyclopropyl-2-(difluoromethoxy)-6-methoxy-4-[7-(1-methylazetidin-3-yl)imidazo[1,2-a]pyridin-3-yl]benzamide], the IC50 was 100 to 500 nM against SIK2, 10 to 100 nM at SIK3 and over 500 nM against SIK1.
For `COc1cc(-c2cnc3cc(C(C)(C)C#N)ccn23)cc(OC(F)F)c1C(=O)N[C@H]1CCCC[C@@H]1N` [Cpd 92, N-[(1S,2S)-2-aminocyclohexyl]-4-[7-(1-cyano-1-methyl-ethyl)imidazo[1,2-a]pyridin-3-yl]-2-(difluoromethoxy)-6-methoxy-benzamide], in that order: over 500 nM, 10 to 100 nM and over 500 nM.
For the compound `COc1cc(-c2cnc3cc(C(C)(C)C#N)ccn23)cc(OC(F)F)c1C(=O)N1CC(C(F)(F)F)C1` [Cpd 76, 2-[3-[3-(difluoromethoxy)-5-methoxy-4-[3-(trifluoromethyl)azetidine-1-carbonyl]phenyl]imidazo[1,2-a]pyridin-7-yl]-2-methyl-propanenitrile], the IC50 at SIK2 is 100 to 500 nM; on SIK3, 0.01 to 10 nM; against SIK1, over 500 nM.
Regarding `COc1cc(-c2cnc3cc(C4(C#N)CN(C(C)=O)C4)ccn23)cc(OC(F)F)c1C(=O)NC1CC1` [Cpd 122, 4-[7-(1-acetyl-3-cyano-azetidin-3-yl)imidazo[1,2-a]pyridin-3-yl]-N-cyclopropyl-2-(difluoromethoxy)-6-methoxy-benzamide], the IC50 is over 500 nM on SIK2, 10 to 100 nM at SIK3 and over 500 nM on SIK1.
`COc1cc(-c2cnc3cc(C(C)(C)C#N)ccn23)cc(OC(F)F)c1C(=O)NC(C)C` [Cpd 78, 4-[7-(1-cyano-1-methyl-ethyl)imidazo[1,2-a]pyridin-3-yl]-2-(difluoromethoxy)-N-isopropyl-6-methoxy-benzamide]: the IC50 against SIK2 was over 500 nM; on SIK3, 10 to 100 nM; against SIK1, over 500 nM.
`COc1cc(-c2cnc3cc(C(C)(C)C#N)ccn23)cnc1C(=O)NCC(F)(F)F` [Cpd 127, 5-[7-(1-cyano-1-methyl-ethyl)imidazo[1,2-a]pyridin-3-yl]-3-methoxy-N-(2,2,2-trifluoroethyl)pyridine-2-carboxamide]: the figures for the IC50 against SIK2, at SIK3 and against SIK1 were over 500 nM, 100 to 500 nM and over 500 nM, respectively.
